Assay results from US20160375155A1, “Collagen Imaging Compositions” (Collagen Medical, LLC, priority 2015, published 2016).

How the values were obtained:
[1] = molecular target: Native canine Collagen Type I and III protein; assay: Collagen binding assay, dried dog collagen plate; details: 37° C., pH 7.4; collagen 5 μM; fit to 1 binding site
Protocol: Canine collagen (Native canine Collagen Type I and III protein, YO protein AB, cat#739) is dissolved in 0.5 M acetic acid at 3.3 mg/ml by vortexing and shaking overnight at 4° C. The solution is then dialyzed against 10 mM Phosphate (NaH2PO4), pH 4.2 at 4° C. with three changes of the dialysis buffer.
Ice-cold 1×PBS pH 10.8 is added to the collagen solution for a final collagen concentration of 10 μM, pH 7.4. Collagen solutions are gelled and dried down in the wells of a 96 well microtiter plate (Corning Polystyrene Flat Bottom, cat#3641). 70 μl of 10 μM collagen is aliquoted into each well in every other lane in the plate (48 wells) and the plate is incubated at 37° C. for 18 hours to form a gel and evaporate to dryness. Ungelled collagen is removed by washing the collagen films with 200 μl 1×PBS pH 7.4 (four times, 15 min per wash). The thin collagen fibril film remains, coating the bottom of each well. After washing by PBS the plate is again dried at 37° C. for 2 hours and is stored at −20° C. The final well content of gelled collagen is measured by determination of hydroxyproline and is around 180 μg/ml.
a serial dilution of 0.2 μM-30 μM of the peptide chelate is prepared in PBS, pH 7.4 (˜300 μL of solution for each concentration). 90 μl of each concentration is also reserved in a HPLC glass vial as a sample to measure the total concentration. 140 μL of each dilution of peptide chelate is added to wells containing and non-containing collagen (control for nonspecific plastic binging). The plate is then incubated on a shaker table (300 rpm) for 2 hours at room temperature to allow the compound to bind. […] The concentration of free, unbound compound in the sample supernatants and the concentration of compound in the reserved (total) sample are determined by ICP-MS (Agilent 7500, gadolinium concentration). The concentration of compound bound to collagen is determined as [bound]=[total]−[unbound].
The binding of compounds to human, rat and dog collagen (5 μM) was measured over the concentration range 0.2-5 μM of Comp ID Nos.: 1-4. […]

[2] = system: hypoperfused vs normally perfused myocardium; assay type: in vivo, canine
Protocol: To mimic severe ischemia, a canine model was used in which an inflatable variable vascular occluder was placed around the left anterior descending coronary artery (LAD) to allow occlusion and reperfusion. Imaging was performed on a 3 T clinical scanner 4 days after implantation of the occluder. The conventional saturation recovery pulse sequence for stress perfusion imaging was compared with a segmented inversion method. The purpose of the segmented inversion method was to leverage the steady-state properties of Compound ID No. 1. This segmented inversion recovery pulse sequence provides greater T1 weighting, higher spatial resolution, and greater myocardial tissue contrast. Additionally, since imaging is delayed, the entire heart can be imaged. After baseline MRI scanning, the balloon was inflated. Compound ID No. 1 was administered as an i.v. bolus at a dose of 7.5 μmol/kg one minute after coronary artery occlusion. The occlusion was maintained for an additional 4 minutes, after which blood flow was restored. Imaging was performed prior to occlusion release and at multiple time points following reperfusion (up to 120 minutes after reperfusion, see FIG. 20)
To assess relative perfusion, labeled microspheres were administered at 3 timepoints in the study. La-labeled microspheres were given before coronary artery occlusion, Au-labeled microspheres were given during coronary artery occlusion, and Lu-labeled microspheres were given after reperfusion. In addition, prior to euthanasia, the variable occluder was re-inflated and fluorescent microspheres were administered in combination with KCl to arrest the heart and visually delineate the area of hypo-perfusion. The animal was sacrificed at ca. 120 minutes post Compound ID No. 1 and the heart removed and sectioned according to American Heart Association guidelines (M D Cerqueira et al, Circulation, 2002, 105:539-42). At autopsy under ultraviolet light, the hypo-perfused myocardium was differentiated from normal myocardium due to the lack of fluorescence in the hypo-perfused tissue. Based on the fluorescence, a sample of the ischemic territory and a sample of the remote myocardium were taken for ex vivo analysis. These tissue samples were weighed, digested in nitric acid, and analyzed for the elements La, Au, Lu (the three microsphere injections) and gadolinium (Compound ID No. 1) using ICP-MS. Concentrations in the ischemic tissue were compared to that of the remote myocardium to assess regional flow and probe uptake.
Data were quantitatively evaluated at pre-contrast, at 6 minutes post-contrast, and 15 minutes post-contrast using signal-to-noise ratios (SNR) for normally perfused myocardium, SNR for hypo-perfused myocardium, and contrast to noise ratio (CNR) for normal-to-hypoperfused myocardium, Tables 8-10 and FIG. 23. […]

SMILES: CC(C)C[C@H](NC(=O)[C@@H]1CSSC[C@H](NC(=O)[C@H](Cc2c[nH]cn2)NC(=O)[C@H](Cc2c[nH]c3ccccc23)NC(=O)[C@H](CCCCNC(=O)CC[C@H](C(=O)O)N2CCN(CC(=O)O)CCN(CC(=O)O)CCN(CC(=O)O)CC2)NC(=O)CNC(=O)CC[C@H](C(=O)O)N2CCN(CC(=O)O)CCN(CC(=O)O)CCN(CC(=O)O)CC2)C(=O)N[C@@H]([C@@H](C)O)C(=O)N[C@@H]([C@@H](C)O)C(=O)N[C@@H](CCCCNC(=O)CC[C@H](C(=O)O)N2CCN(CC(=O)O)CCN(CC(=O)O)CCN(CC(=O)O)CC2)C(=O)N[C@@H](Cc2ccccc2)C(=O)N2CCC[C@H]2C(=O)N[C@@H](Cc2c[nH]cn2)C(=O)N[C@@H](Cc2c[nH]cn2)C(=O)N[C@@H](Cc2ccc(O)cc2)C(=O)N1)C(=O)N[C@@H](Cc1ccc(O)cc1)C(=O)N[C@@H](Cc1ccc(-c2ccccc2)cc1)C(N)=O [Compound ID No. 1]
- Kd [1]: 4.4 µM
- ΔCNR relative to EP-3600 study ([2]; 7.5 μmol/kg vs 12.3 μmol/kg EP-3600 (pig, literature)): 3 to 4 fold
- visualization of myocardial perfusion defect ([2]; MRI after 7.5 μmol/kg): readily visualized
- change in SNR of hypoperfused myocardium vs pre-contrast ([2]; post injection): not significantly higher compared to the pre-contrast image
- change in SNR of normally perfused myocardium vs pre-contrast ([2]; post injection, persists at 15 min, P<0.01): strong and significant increase in SNR
